# PMC7586935 (Journal of Clinical Pharmacology, 2020)
# Structures can show the parent of a compound that is named as a salt.
# Legend:
# [1] = Plasma pharmacokinetics after single oral dose; assay type: in vivo; settings: human; for AUC / Tmax: oral; for Cmax: po
# [2] = tested on: HR, PR, and QRS of healthy volunteers; assay: PK-PD analysis of other ECG parameters; assay type: in vivo, human
# [3] = tested on: QTcF interval of healthy volunteers; assay: Time-matched analysis of placebo-adjusted change from baseline QTcF; assay type: in vivo, human
compound,measurement,setting,value
"O=c1n(CCCN2CCN(c3cccc(Cl)c3)CC2)nc2ccccn12 [Trazodone, Trazodone hydrochloride]",AUC,[1]; 20 mg,2150 ± 909 ng·h/mL
same,Tmax,[1]; 20 mg,30 min
same,AUC,[1]; 60 mg,6240 ± 2030 ng·h/mL
same,Tmax,[1]; 60 mg,30 min
same,AUC,[1]; 140 mg,12800 ± 4910 ng·h/mL
same,Tmax,[1]; 140 mg,18 min
same,Cmax,[1]; 20 mg,413 ± 79.1 ng/mL
same,Cmax,[1]; 60 mg,1270 ± 598 ng/mL
same,Cmax,[1]; 140 mg,2080 ± 600 ng/mL
same,Slope of HR change from baseline vs trazodone plasma concentration,[2]; SE 0.8013,2.199
same,Slope of PR change from baseline vs trazodone plasma concentration,[2]; in vivo,–3.6040
same,Slope of QRS change from baseline vs trazodone plasma concentration,[2]; in vivo,0.0445
same,Predicted placebo-adjusted and baseline-corrected HR at mean Cmax,[2]; trazodone 20 mg,1.45 bpm
same,Predicted placebo-adjusted and baseline-corrected HR at mean Cmax,[2]; trazodone 60 mg,2.12 bpm
same,Predicted placebo-adjusted and baseline-corrected HR at mean Cmax,[2]; trazodone 140 mg,2.76 bpm
same,Predicted placebo-adjusted and baseline-corrected PR at predicted Cmax,[2]; trazodone 140 mg,–7.4 ms
same,Predicted placebo-adjusted and baseline-corrected QRS at predicted Cmax,[2]; trazodone 140 mg,0.115 ms
same,"Placebo-adjusted change from baseline QTcF, estimate (90%CI)","[3]; trazodone 20 mg, N = 16, 5 min postdose",–3.3 (–7.8 to 1.1) ms
same,"Placebo-adjusted change from baseline QTcF, estimate (90%CI)","[3]; trazodone 20 mg, N = 16, 10 min postdose",–1.2 (–6.2 to 3.8) ms
same,"Placebo-adjusted change from baseline QTcF, estimate (90%CI)","[3]; trazodone 20 mg, N = 16, 20 min postdose",–0.2 (–5.4 to 5.0) ms
same,"Placebo-adjusted change from baseline QTcF, estimate (90%CI)","[3]; trazodone 20 mg, N = 16, 0.5 h postdose",2.1 (–0.3 to 4.6) ms
same,"Placebo-adjusted change from baseline QTcF, estimate (90%CI)","[3]; trazodone 20 mg, N = 16, 1 h postdose",6.6 (1.5–11.7) ms
same,"Placebo-adjusted change from baseline QTcF, estimate (90%CI)","[3]; trazodone 20 mg, N = 16, 2 h postdose",3.5 (0.5–6.5) ms
same,"Placebo-adjusted change from baseline QTcF, estimate (90%CI)","[3]; trazodone 20 mg, N = 16, 3 h postdose",1.7 (–2.7 to 6.1) ms
same,"Placebo-adjusted change from baseline QTcF, estimate (90%CI)","[3]; trazodone 20 mg, N = 16, 4 h postdose",3.2 (–2.3 to 8.6) ms
same,"Placebo-adjusted change from baseline QTcF, estimate (90%CI)","[3]; trazodone 20 mg, N = 16, 6 h postdose",–0.2 (–4.8 to 4.3) ms
same,"Placebo-adjusted change from baseline QTcF, estimate (90%CI)","[3]; trazodone 20 mg, N = 16, 8 h postdose",1.2 (–2.3 to 4.6) ms
same,"Placebo-adjusted change from baseline QTcF, estimate (90%CI)","[3]; trazodone 20 mg, N = 16, 12 h postdose",0.6 (–4.7 to 5.8) ms
same,"Placebo-adjusted change from baseline QTcF, estimate (90%CI)","[3]; trazodone 20 mg, N = 16, 16 h postdose",–3.3 (–6.9 to 0.3) ms
same,"Placebo-adjusted change from baseline QTcF, estimate (90%CI)","[3]; trazodone 20 mg, N = 16, 24 h postdose",1.8 (–3.5 to 7.1) ms
same,"Placebo-adjusted change from baseline QTcF, estimate (90%CI)","[3]; trazodone 60 mg, N = 16, 5 min postdose",–2.3 (–6.7 to 2.1) ms
same,"Placebo-adjusted change from baseline QTcF, estimate (90%CI)","[3]; trazodone 60 mg, N = 16, 10 min postdose",0.3 (–4.1 to 4.6) ms
same,"Placebo-adjusted change from baseline QTcF, estimate (90%CI)","[3]; trazodone 60 mg, N = 16, 20 min postdose",4.8 (–0.4 to 10.0) ms
same,"Placebo-adjusted change from baseline QTcF, estimate (90%CI)","[3]; trazodone 60 mg, N = 16, 0.5 h postdose",11.9 (8.6–15.3) ms
same,"Placebo-adjusted change from baseline QTcF, estimate (90%CI)","[3]; trazodone 60 mg, N = 16, 2 h postdose",8.8 (4.2–13.4) ms
same,"Placebo-adjusted change from baseline QTcF, estimate (90%CI)","[3]; trazodone 60 mg, N = 16, 3 h postdose",6.1 (1.9–10.2) ms
same,"Placebo-adjusted change from baseline QTcF, estimate (90%CI)","[3]; trazodone 60 mg, N = 16, 4 h postdose",7.9 (4.3–11.5) ms
same,"Placebo-adjusted change from baseline QTcF, estimate (90%CI)","[3]; trazodone 60 mg, N = 16, 6 h postdose",2.2 (–1.8 to 6.2) ms
same,"Placebo-adjusted change from baseline QTcF, estimate (90%CI)","[3]; trazodone 60 mg, N = 16, 8 h postdose",–0.4 (–3.4 to 2.7) ms
same,"Placebo-adjusted change from baseline QTcF, estimate (90%CI)","[3]; trazodone 60 mg, N = 16, 12 h postdose",6.4 (1.7–11.0) ms
same,"Placebo-adjusted change from baseline QTcF, estimate (90%CI)","[3]; trazodone 60 mg, N = 16, 16 h postdose",–1.4 (–5.6 to 2.7) ms
same,"Placebo-adjusted change from baseline QTcF, estimate (90%CI)","[3]; trazodone 60 mg, N = 16, 24 h postdose",2.0 (–3.0 to 6.9) ms
same,"Placebo-adjusted change from baseline QTcF, estimate (90%CI)","[3]; trazodone 60 mg, N = 16, […] postdose",16.9 ms
same,Increase in the QTcF interval (time-matched analysis),"[3]; trazodone 60 mg, between 30 minutes and […] postdose",> 10 ms
same,"Placebo-adjusted change from baseline QTcF, estimate (90%CI)","[3]; trazodone 140 mg, N = 18, 5 min postdose",0.8 (–2.7 to 4.4) ms
same,"Placebo-adjusted change from baseline QTcF, estimate (90%CI)","[3]; trazodone 140 mg, N = 18, 10 min postdose",0.5 (–3.0 to 4.0) ms
same,"Placebo-adjusted change from baseline QTcF, estimate (90%CI)","[3]; trazodone 140 mg, N = 18, 20 min postdose",11.6 (7.8–15.5) ms
same,"Placebo-adjusted change from baseline QTcF, estimate (90%CI)","[3]; trazodone 140 mg, N = 18, 0.5 h postdose",20.2 (16.4–23.9) ms
same,"Placebo-adjusted change from baseline QTcF, estimate (90%CI)","[3]; trazodone 140 mg, N = 18, 1 h postdose",24.5 (20.3–28.7) ms
same,"Placebo-adjusted change from baseline QTcF, estimate (90%CI)","[3]; trazodone 140 mg, N = 18, 2 h postdose",17.1 (13.4–20.8) ms
same,"Placebo-adjusted change from baseline QTcF, estimate (90%CI)","[3]; trazodone 140 mg, N = 18, 3 h postdose",14.5 (7.6–21.5) ms
same,"Placebo-adjusted change from baseline QTcF, estimate (90%CI)","[3]; trazodone 140 mg, N = 18, 4 h postdose",12.8 (8.5–17.1) ms
same,"Placebo-adjusted change from baseline QTcF, estimate (90%CI)","[3]; trazodone 140 mg, N = 18, 6 h postdose",6.7 (2.3–11.2) ms
same,"Placebo-adjusted change from baseline QTcF, estimate (90%CI)","[3]; trazodone 140 mg, N = 18, 8 h postdose",5.8 (0.9–10.7) ms
same,"Placebo-adjusted change from baseline QTcF, estimate (90%CI)","[3]; trazodone 140 mg, N = 18, 12 h postdose",7.9 (4.3–11.6) ms
same,"Placebo-adjusted change from baseline QTcF, estimate (90%CI)","[3]; trazodone 140 mg, N = 18, 16 h postdose",–0.7 (–5.2 to 3.8) ms
same,"Placebo-adjusted change from baseline QTcF, estimate (90%CI)","[3]; trazodone 140 mg, N = 18, 24 h postdose",1.7 (–1.4 to 4.8) ms
